Patent publication US8716030B2, “Means for the inhibition of anti-β1-adrenergic receptor antibodies” (Julius-Maximillians-Universitat Wurzburg, A Germany …, priority 2005, dated 2014)
“Also recorded” adds a separate entry of the source. Read-outs that look alike come from different tables or passages of the source.

Tests used:
[1] = system: immunized anti-β1-positive cardiomyopathic rats; experiment: Treatment of immune-cardiomyopathy in the human analogue rat model (therapy study); type: in vivo, Lewis CrlBR rats; details: therapy every 4 weeks after 8 months of immunization; FIGS. 8a and 8b
From the text: Lewis CrlBR rats were used as animals. […] Therapy was started after 8 months of regular (1× monthly) immunization. Monthly immunization was continued under therapy.
FIG. 8b is a diagram comparing the titer course of specific anti-ECII antibodies dependent on the different peptide variants used in the therapy arm of the study, whereby 25AA means the cyclic peptide Ic, 18AA means the shorter 18 amino-acid variant, and 16AA the shorter 16 amino-acid variant of the peptide. “Beta1 untreated” means immunized anti-1-positive cardiomyopathic not treated animals, “Beta1/pept. […] ECII-25AA, ECII-18AA, ECII-16AA” means immunized anti-1-positive cardiomyopathic animals treated with the 25AA-, 18AA-, or 16AA-peptide, respectively.
[…]. In general, the number of amino acids and thus the length of the primary structure appears to be crucial for the biological effects of the peptides of the present invention. A peptide-length equal to or above 26 amino acids (primary structure) is thought to be capable of stimulating directly (that is, without the use of carrier proteins) immunocompetent T-cells and thus provoke a paradoxal increase in anti-β1-receptor antibody production through T-cell mediated B-cell stimulation. Therefore, in the frame of the therapy study a limited number of pilot animals was treated with shorter peptide-variants of the 25 amino-acid peptide Ic, i.e. variants comprising either 18 or 16 amino-acids of the cyclic peptide. The used constructs were: ECII-18AA, cyclo([…] (SEQ ID NO:1); and ECII-16AA, cyclo([…] (SEQ ID NO.2). Upon administration of shorter peptide-variants of the present invention peptide every 4 weeks, a rapid decrease in the specific anti-beta 1-ECII antibody titer was equally observed within the first 6 months of therapy.

[2] = system: immunized anti-β1-positive cardiomyopathic rats; experiment: as above; type: in vivo, Lewis CrlBR rats; details: for regression of LV dilatation: therapy study; for regression of LV dilatation / biological efficiency (reversal of the cardiomyopathic phenotype): echocardiography; for progression of the disease monitored by echocardiography: within the 12 months of treatment, compared with untreated antibody positive animals, FIGS. 10 and 11; for biological efficiency (reversal of the cardiomyopathic phenotype): FIGS. 10d and 11d
[3] = system: rats immunized against the second β1-receptor loop (β1-ECII); experiment: Prevention of immune-cardiomyopathy in the human analogue rat model
CD4+ T-cells = experiment: T-cell recall assay with CD4+ T-cells from immunized animals (FIG. 19); type: cell-based, rat; details: T-cells from prophylactically or therapeutically treated immunized animals; peptide 10 μg/ml, FP 1.0 or 0.1 μg/mL
Method: “Cont.” means the respective not immunized control animals. The assays were carried out according to Schmidt J. et al. (2003) J Neuroimmunol. 140, 143-152. In brief, to purify CD4+ T-cells from the splenic cell preparations, B-cells and CD8+ T-cells were depleted by commercially available magnetic beads (MACS®), yielding a purity of CD4+ cells >85%. 1×10^5 CD4+ of the purified T-cells were then co-incubated in 96-well plates with 1×10^6 irradiated thymic antigen presenting cells (prepared from a younger rat). Reagents added in the different assays (conditions) were: 10 μg/ml glutathion-S-transferase (GST), 2 μg/ml Concanavalin A (ConA, positive control), 10 μg/ml 25AA-ECII peptide (Pept.25AA), and GST/beta1-ECII fusion protein (FP) at a concentration of 1.0 and 0.1 μg/ml, respectively. The measured T-cell reactivities were normalized to the respective T-cell reactivities obtained with 10 μg/ml purified protein derivative (PPD) carried out in parallel under each condition. After 48 hours of incubation, 50% of the supernatants were removed and replaced by fresh medium. The cells were then pulsed with 1.25 μCi/well [^3H]-thymidine and further incubated for 16 hours before the cells were harvested, and the DNA-incorporated radioactivity was measured using a beta-plate.

[4] = system: rats immunized against the second β1-receptor loop (β1-ECII); details: rat, in vivo

With CC(C)NCC(O)COc1ccc(COCCOC(C)C)cc1 (stereo not drawn) [bisoprolol, reference compound] the “circulating specific anti-β1-ECII antibody titer” value [1] was “had even higher beta1-antibody titers”, the “cardiac β1-receptor density (down-/upregulation)” value ([2]; FIGS. 17 and 18 (prevention and therapy study)) was “β1-receptor upregulation” and the “regression of LV dilatation” value [2] was “could not be reversed completely”. For the same molecule, the “progression of the disease monitored by echocardiography” value (“progression of the disease monitored” below) [2] was “no progression”, the “impact on heart rate and blood pressure” value ([3]; FIG. 12 and FIG. 13, examples 3 and 4 (prevention and therapy study)) was “significantly reduced both heart rate and blood pressure” and the heart rate ([3]; prophylactic treatment, FIGS. 5 and 12) was “significant reduction in heart rate”.
For “cyclo(Ala-Arg-Ala-Glu-Ser-Asp-Glu-Ala-Arg-Arg-Cys-Tyr-Asn-Asp-Pro-Lys-Cys-Cys-Asp-Phe-Val-Thr-Asn-Arg-Gln) (cyclo(ARAESDEARRCYNDPKCCDFVTNRQ); not fully specified; printed as cyclo(Ala-Arg-Ala-Glu-Ser-Asp-Glu-Ala-Arg-Arg-Cys-Tyr-Asn-Asp-Pro-Lys-Cys-Cys-Asp-Phe-Val-Thr-Asn-Arg-Gln); cysteine pairing not given here) [peptide Ic]”, the “circulating specific anti-β1-ECII antibody titer” value [1] was “surprisingly rapid decrease; also recorded: reduced by about a same extent”, the “stimulation and proliferation of CD4+ T-cells” value (CD4+ T-cells) was “neither treatment group resulted in a significant stimulation” and the heart rate [4] was “did neither decrease heart rate”. The “biological efficiency (reversal of the cardiomyopathic phenotype)” value (“biological efficiency” below) [2] was “reversal of the cardiomyopathic phenotype”, the “regression of LV dilatation” value [2] was “significant regression of LV dilatation” and the “progression of the disease monitored” value [2] was “no progression”. For the same molecule, the “specific anti-β1-ECII antibody-titer” value ([3]; 1 mg/kg s.c. or i.v. every 4 weeks, prophylactic, FIG. 4) was “prevented a further increase of the specific anti-β1-ECII antibody-titer with the titer even continuously declining” and the “immune response upon antigen boost every 4 weeks” value ([3]; from the fifth month on, FIG. 4) was “no more immune response”.
With “cyclo(Ala-Arg-Arg-Cys-Tyr-Asn-Asp-Pro-Lys-Cys-Cys-Asp-Phe-Val-Tyr-Gln) (cyclo(ARRCYNDPKCCDFVYQ); not fully specified; printed as cyclo(Ala-Arg-Arg-Cys-Tyr-Asn-Asp-Pro-Lys-Cys-Cys-Asp-Phe-Val-Tyr-Gln); cysteine pairing not given here) [ECII-16AA]” the “circulating specific anti-β1-ECII antibody titer” value [1] was “remain stable instead of decreasing”, the “biological efficiency” value [2] was “ambiguous results in 2 treated rats with one animal having complete reversal of the cardiomyopathic phenotype, the other animal progressive LV dilatation and dysfunction” and the “regression of LV dilatation” value [2] was “obviously being less effective”. The “progression of the disease monitored” value [2] was “at least the progression of the disease was stopped or stabilized”.
“cyclo(Ala-Asp-Glu-Ala-Arg-Arg-Cys-Tyr-Asn-Asp-Pro-Lys-Cys-Cys-Asp-Phe-Val-Gln) (cyclo(ADEARRCYNDPKCCDFVQ); not fully specified; printed as cyclo(Ala-Asp-Glu-Ala-Arg-Arg-Cys-Tyr-Asn-Asp-Pro-Lys-Cys-Cys-Asp-Phe-Val-Gln); cysteine pairing not given here) [ECII-18AA]” was tested, and the “circulating specific anti-β1-ECII antibody titer” value [1] was “reduced by about a same extent”, the “biological efficiency” value [2] was “reversal of the cardiomyopathic phenotype” and the “regression of LV dilatation” value [2] was “significant regression of LV dilatation”.
